Measurements published in patent US9918990B2, “Substituted pyrrolo[2,3-c]pyridines and pyrazolo[3,4-c]pyridines as BET protein inhibitors” (Incyte Corporation, priority 2013, dated 2018).

Tests used:
BRD4-BD1 = BRD4-BD1 (Homo sapiens (Human), UniProt O60885); test: BRD4 AlphaScreen assay, BRD4-BD1; assay type: binding; conditions: H4Ac4 peptide, 75 min, room temperature, read-out: BRD4 BD-1 enzyme IC50
Outline: (§1)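 AlphaScreen read after 75 min dark incubation at room temperature, inhibitors serially diluted in DMSO and added before other components. IC50 from fit of percent control activity versus log inhibitor concentration.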

BRD4-BD2 = BRD4-BD2 (Homo sapiens (Human), UniProt O60885); test: BRD4 AlphaScreen assay, BRD4-BD2; assay type: binding; conditions: H4Ac4 peptide, 75 min, room temperature, read-out: BRD4 BD-2 enzyme IC50
Outline: as §1

KMS.12.BM cells = test: KMS.12.BM cell viability assay (Cell Titer-GLO, ATP quantitation); assay type: cell-based; conditions: Homo sapiens, 72 h, 3 days, concentration required for 50% cell death, read-out: KMS cellular IC50
Outline: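 Human myeloma KMS.12.BM cells, 5000 cells/well in RPMI with 10% FBS, were exposed to a compound concentration range for 3 days. Viability was read by Cell Titer-GLO ATP luminescence relative to untreated cells; IC50 is the concentration giving 50% cell death.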

C-myc = test: KMS.12.BM C-myc ELISA assay; assay type: cell-based; conditions: Homo sapiens; KMS.12.BM cells, 2 hours, concentration required for 50% C-myc inhibition
Experimental: KMS.12.BM cell line (human myeloma) was purchased from JCRB (Osaka, Japan) and maintained in RPMI with 10% FBS culture medium. To measure the C-myc inhibitory activity of the compounds, the KMS.12.BM cells are plated in the RPMI culture medium at 75000 cells/well/per 200 μL into a 96-well flat bottom polystyrene tissue culture plate (Corning through VWR, NJ), in the presence or absence of a concentration range of test compounds. After 2 hours, cell are pelleted and lysed with Cell Extraction Buffer (BioSource, Carlsbad, Calif.) in the presence of protease inhibitors (Life Technologies, Grand Island, N.Y. and Sigma, St Louis, Mo.). Clarified lyses are tested in a C-myc commercial ELISA (Life Technologies, Grand Island, N.Y.). Compound inhibition is determined relative to cells cultured with no drug and the IC50 is reported as the compound concentration required for 50% C-myc inhibition. IC50 data for the Examples is presented in Table 10 as determined by Assay C1.

Row | SMILES | IC50 (BRD4-BD1) [nM] | IC50 (BRD4-BD2) [nM] | IC50 (C-myc) [nM] | IC50 (KMS.12.BM cells) [nM]
1 | Cn1cc(-c2ccc3c(ncn3CCCC#N)c2Oc2ccccc2)c2cc[nH]c2c1=O [Example 52, 4-[5-(6-Methyl-7-oxo-6,7-dihydro-1H-pyrrolo[2,3-c]pyridin-4-yl)-4-phenoxy-1H-benzimidazol-1-yl]butanenitrile] | < 100 | < 100 | ≤ 1000 | ≤ 1000
2 | COc1c(-c2cn(C)c(=O)c3[nH]ccc23)ccc2c1n(CCCC#N)c(=O)n2C [Example 53, 4-[7-Methoxy-3-methyl-6-(6-methyl-7-oxo-6,7-dihydro-1H-pyrrolo[2,3-c]pyridin-4-yl)-2-oxo-2,3-dihydro-1H-benzimidazol-1-yl]butanenitrile] | 100 to 1000 | < 100 | ≤ 1000 | ≤ 1000
3 | COc1c(-c2cn(C)c(=O)c3[nH]ccc23)ccc2c1n(CCC#N)c(=O)n2C [Example 54, 3-[7-Methoxy-3-methyl-6-(6-methyl-7-oxo-6,7-dihydro-1H-pyrrolo[2,3-c]pyridin-4-yl)-2-oxo-2,3-dihydro-1H-benzimidazol-1-yl]propanenitrile] | 100 to 1000 | < 100 | ≤ 1000 | ≤ 1000
4 | Cn1cc(-c2ccc3ncn(CCC#N)c3c2Oc2ccccc2)c2cc[nH]c2c1=O [Example 55, 3-[6-(6-Methyl-7-oxo-6,7-dihydro-1H-pyrrolo[2,3-c]pyridin-4-yl)-7-phenoxy-1H-benzimidazol-1-yl]propanenitrile] | < 100 | < 100 | ≤ 1000 | ≤ 1000
5 | Cn1cc(-c2ccc3c(ncn3C)c2Oc2ccccc2)c2cc[nH]c2c1=O [Example 56, 6-Methyl-4-(1-methyl-4-phenoxy-1H-benzimidazol-5-yl)-1,6-dihydro-7H-pyrrolo[2,3-c]pyridin-7-one] | < 100 | < 100 | ≤ 1000 | ≤ 1000
6 | Cn1cc(-c2ccc3c(ncn3C)c2Oc2ccccc2F)c2cc[nH]c2c1=O [Example 57, 4-[4-(2-Fluorophenoxy)-1-methyl-1H-benzimidazol-5-yl]-6-methyl-1,6-dihydro-7H-pyrrolo[2,3-c]pyridin-7-one] | < 100 | < 100 | ≤ 1000 | ≤ 1000
7 | Cn1cc(-c2ccc3c(ncn3C)c2Oc2cccc(F)c2)c2cc[nH]c2c1=O [Example 58, 4-[4-(3-Fluorophenoxy)-1-methyl-1H-benzimidazol-5-yl]-6-methyl-1,6-dihydro-7H-pyrrolo[2,3-c]pyridin-7-one] | < 100 | < 100 | ≤ 1000 | ≤ 1000
8 | Cn1cc(-c2ccc3c(ncn3C)c2Oc2ccc(F)cc2)c2cc[nH]c2c1=O [Example 59, 4-[4-(4-Fluorophenoxy)-1-methyl-1H-benzimidazol-5-yl]-6-methyl-1,6-dihydro-7H-pyrrolo[2,3-c]pyridin-7-one] | < 100 | < 100 | ≤ 1000 | ≤ 1000
9 | Cn1cc(-c2ccc3c(c2OCC2CCC2)n(CCN2CCOCC2)c(=O)n3C)c2cc[nH]c2c1=O [Example 60, 4-(Cyclobutylmethoxy)-1-methyl-5-(6-methyl-7-oxo-6,7-dihydro-1H-pyrrolo[2,3-c]pyridin-4-yl)-3-(2-morpholin-4-ylethyl)-1,3-dihydro-2H-benzimidazol-2-one] | < 100 | < 100 | ≤ 1000 | ≤ 1000

The next lines start with results.

Row | IC50 (BRD4-BD1) [nM] | IC50 (BRD4-BD2) [nM] | IC50 (C-myc) [nM] | SMILES | IC50 (KMS.12.BM cells) [nM]
10 | < 100 | < 100 | ≤ 1000 | Cn1cc(-c2ccc3c([nH]c(=O)n3C)c2Oc2ccccc2F)c2cc[nH]c2c1=O [Example 39, 4-(2-Fluorophenoxy)-1-methyl-5-(6-methyl-7-oxo-6,7-dihydro-1H-pyrrolo[2,3-c]pyridin-4-yl)-1,3-dihydro-2H-benzimidazol-2-one] | ≤ 1000
11 | < 100 | < 100 | ≤ 1000 | Cn1cc(-c2ccc3c([nH]c(=O)n3C)c2Oc2cccc(F)c2)c2cc[nH]c2c1=O [Example 40, 4-(3-Fluorophenoxy)-1-methyl-5-(6-methyl-7-oxo-6,7-dihydro-1H-pyrrolo[2,3-c]pyridin-4-yl)-1,3-dihydro-2H-benzimidazol-2-one] | ≤ 1000
12 | < 100 | < 100 | ≤ 1000 | Cn1cc(-c2ccc3c([nH]c(=O)n3C)c2Oc2ccc(F)cc2)c2cc[nH]c2c1=O [Example 41, 4-(4-Fluorophenoxy)-1-methyl-5-(6-methyl-7-oxo-6,7-dihydro-1H-pyrrolo[2,3-c]pyridin-4-yl)-1,3-dihydro-2H-benzimidazol-2-one] | ≤ 1000
13 | < 100 | < 100 | ≤ 1000 | Cn1cc(-c2ccc3ncn(CCN4CCOCC4)c3c2Oc2ccccc2)c2cc[nH]c2c1=O [Example 42, 6-Methyl-4-[1-(2-morpholin-4-ylethyl)-7-phenoxy-1H-benzimidazol-6-yl]-1,6-dihydro-7H-pyrrolo[2,3-c]pyridin-7-one] | ≤ 1000
14 | < 100 | < 100 | ≤ 1000 | Cn1cc(-c2ccc3c(ncn3CCN3CCOCC3)c2Oc2ccccc2)c2cc[nH]c2c1=O [Example 43, 6-methyl-4-[1-(2-morpholin-4-ylethyl)-4-phenoxy-1H-benzimidazol-5-yl]-1,6-dihydro-7H-pyrrolo[2,3-c]pyridin-7-one] | ≤ 1000
15 | < 100 | < 100 | ≤ 1000 | Cn1cc(-c2ccc3ncn(Cc4ccccc4)c3c2Oc2ccccc2)c2cc[nH]c2c1=O [Example 45, 4-(1-Benzyl-7-phenoxy-1H-benzimidazol-6-yl)-6-methyl-1,6-dihydro-7H-pyrrolo[2,3-c]pyridin-7-one] | ≤ 1000
16 | < 100 | < 100 | ≤ 1000 | Cn1cc(-c2ccc3c(ncn3Cc3ccccc3)c2Oc2ccccc2)c2cc[nH]c2c1=O [Example 46, 4-(1-Benzyl-4-phenoxy-1H-benzimidazol-5-yl)-6-methyl-1,6-dihydro-7H-pyrrolo[2,3-c]pyridin-7-one] | ≤ 1000
17 | < 100 | < 100 | ≤ 1000 | Cn1cc(-c2ccc3ncn(CCc4ccccc4)c3c2Oc2ccccc2)c2cc[nH]c2c1=O [Example 47, 6-Methyl-4-[7-phenoxy-1-(2-phenylethyl)-1H-benzimidazol-6-yl]-1,6-dihydro-7H-pyrrolo[2,3-c]pyridin-7-one] | ≤ 1000
18 | < 100 | < 100 | ≤ 1000 | Cn1cc(-c2ccc3c(ncn3CCc3ccccc3)c2Oc2ccccc2)c2cc[nH]c2c1=O [Example 48, 6-Methyl-4-[4-phenoxy-1-(2-phenylethyl)-1H-benzimidazol-5-yl]-1,6-dihydro-7H-pyrrolo[2,3-c]pyridin-7-one] | ≤ 1000
19 | < 100 | < 100 | ≤ 1000 | Cn1cc(-c2ccc3ncn(CCCC#N)c3c2Oc2ccccc2)c2cc[nH]c2c1=O [Example 51, 4-[6-(6-Methyl-7-oxo-6,7-dihydro-1H-pyrrolo[2,3-c]pyridin-4-yl)-7-phenoxy-1H-benzimidazol-1-yl]butanenitrile] | ≤ 1000
